The nature of data set [1]: H+/Na+ transport assay of bead-derived peptides (one-point).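 Note: relative to parent gramicidin A activity set to 1.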 The data set is classed as biochemical. Also on record: key: relative activity; mean of two control wells = 1.00. The note with it: bead-derived peptide solution, EYPC/EYPG LUVs. An outline of the steps:
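Values are normalized fluorescence, with Triton X-100 defining 100% and untreated LUVs 0%, and the two control wells averaging 1.00. Vesicles carried 1.0 mM pyranine and included egg yolk phosphatidylglycerol. Peptides were incubated with them 30 min at room temperature.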

Data set [2] concerns P388 mouse leukemia cells. Conditions: 92 h. The method, boiled down: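 First, library peptide stocks are diluted 250-fold in RPMI1640 with 10% heat-inactivated FBS. Next, they are mixed with P388 cells to give 1 × 10^4 cells/mL and incubated 92 h at 37 °C, 5% CO2. Finally, viability (%) is scored by WST-1 absorbance at 415 nm.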

Where a SMILES comes first, the peptide text is derived from it. [ ]: non-standard residue; d: D form. The star is where a group is joined. NHCH2CH2OH = OCCN*; For = O=C*

In the case of `CC(C)C[C@@H](NC(=O)[C@H](C)NC(=O)CNC(=O)[C@@H](NC=O)C(C)C)C(=O)N[C@@H](C)C(=O)N[C@@H](C(=O)N[C@H](C(=O)N[C@@H](C(=O)N[C@@H](Cc1c[nH]c2ccccc12)C(=O)N[C@H](CC(C)C)C(=O)N[C@@H](Cc1c[nH]c2ccccc12)C(=O)N[C@H](CC(C)C)C(=O)N[C@@H](Cc1c[nH]c2ccccc12)C(=O)N[C@H](CC(C)C)C(=O)N[C@@H](Cc1c[nH]c2ccccc12)C(=O)NCCO)C(C)C)C(C)C)C(C)C` [compound 1, Gramicidin A] (For-VGA[dL]A[dV]V[dV]W[dL]W[dL]W[dL]W-NHCH2CH2OH), in data set [1], the “H+/Na+ transport activity normalized against the value of 1 (1.00)” value came out at 1.07. Also, the cell viability/% in data set [2] was determined as 100.0%.
